pKi: −log10 of the molar value. Read-outs that look alike come from different tables or passages of the source.
Assays:
[1] = target: T1, recombinant Mcl-1 (residues 172-327) (Homo sapiens, UniProt Q07820); assay: Bak peptide binding assay: fluorescence polarization anisotropy competition (FITC-Bak BH3 peptide); conditions: 10 nM FITC-Bak, 14 nM Mcl-1, Ki converted from IC50
T1 construct: 14 nM recombinant Mcl-1 (residues 172-327) were added to assay buffer
Procedure: (§1) Bak Peptide Binding Assay
(§2) Compound affinity was measured using a fluorescence polarization anisotropy competition assay. Anisotropy measurements were carried out in 384-well, black, flat-bottom plates (Greiner Bio-one, Monroe, N.C., USA). The assay was run using a fluorescein isothiocyanate-labeled BH3 peptide derived from Bak (FITC-AHx-[…] […] H2) (SEQ ID NO: 1) that was purchased from GenScript (Piscataway, N.J.) at >95% purity and used without further purification. 10 nM FITC-Bak peptide and 14 nM recombinant Mcl-1 (residues 172-327) were added to assay buffer (3 mM dithiothreitol, 50 mM NaCl, 20 mM Tris, pH 7.5). For selectivity assays, 40 nM Bcl-2 (residues 1-207^A96T,G110R, Δ35-91, replaced with Bcl-xL35-50) or 4 nM Bcl-xL (residues 1-209, loop 45-86 deleted) were incubated with 10 nM FITC-Bak in assay buffer.
(§3) Compounds are diluted in DMSO in a 10-point, 3-fold serial dilution scheme. 2.5 uL compound is added to 47.5 uL of assay buffer containing FITC-Bak and protein, for a final DMSO concentration of 5% and a top concentration of 20 uM. […] The plate was mixed and incubated for 90 minutes at room temperature. Anisotropy is measured at excitation wavelength 480 nm and emission wavelength 535 nm using an EnVision Multi-label plate reader (PerkinElmer, Wellesley, Mass., USA). Fluorescence anisotropy is plotted against compound concentration to generate an IC50 (inhibitor concentration at which 50% of bound peptide is displaced) by fitting the data to a 4-parameter logistic model using XLFit software (Guildford, Surrey, UK). IC50 is converted to a binding dissociation constant (Ki value) according to the formula of Wang Z. FEBS Lett (1996) 3, 245: Ki=[I]50/([L]50/Kd+[P]0/Kd+1) where [I]50 is the concentration of the free inhibitor at 50% inhibition, [L]50 is the concentration of the free labeled ligand at 50% inhibition, [P]0 is the concentration of the free protein at 0% inhibition, Kd represents the dissociation constant of the FITC peptide probe.

[2] = target: T2, Bcl-xL (residues 1-209, loop 45-86 deleted) (Homo sapiens, UniProt Q07817, DEL45-86); assay: biochemical; type: binding; conditions: Table 3; 10 nM FITC-Bak, 4 nM Bcl-xL; top concentration 20 uM
T2 construct: Bcl-xL (residues 1-209, loop 45-86 deleted)
T2 sequence (Q07817 other isoform, or with tags, fused parts or gaps DEL45-86): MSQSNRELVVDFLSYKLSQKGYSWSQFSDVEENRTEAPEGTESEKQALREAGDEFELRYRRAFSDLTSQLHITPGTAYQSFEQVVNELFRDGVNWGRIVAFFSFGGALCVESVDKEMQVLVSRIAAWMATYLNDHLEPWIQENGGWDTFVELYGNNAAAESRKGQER
Procedure: as §1, §2, §3

[3] = Ki For Inhibition of Mcl-I Protein, Table 2, binned range

T1 sequence (Q07820 172-327): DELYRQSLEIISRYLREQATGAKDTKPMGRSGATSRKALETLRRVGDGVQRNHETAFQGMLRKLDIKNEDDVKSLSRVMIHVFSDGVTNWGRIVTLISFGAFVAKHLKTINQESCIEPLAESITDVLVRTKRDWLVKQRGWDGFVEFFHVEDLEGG

Structure (SMILES) | pKi [1, 3] | further results
O=C(O)c1c(CCCOc2cccc3ccccc23)c2cccc3c2n1CCO3 [Example 25, 6-(3-(naphthalen-1-yloxy)propyl)-2,3-dihydro-[1,4]oxazino[2,3,4-hi]indole-5-carboxylic acid] | 6.52 to 7.00 | –
Cc1cc(OCCCc2c(C(=O)O)n3c4c(c(Cl)ccc24)CCC3)cc(C)c1Cl [Example 28, 7-chloro-1-(3-(4-chloro-3,5-dimethylphenoxy)propyl)-5,6-dihydro-4H-pyrrolo[3,2,1-ij]quinoline-2-carboxylic acid] | ≥ 7.00 | –
Cc1cc(OCCCc2c(C(=O)NS(=O)(=O)c3ccccc3)n3c4c(cccc24)CCC3)cc(C)c1Cl [Example 17, 1-(3-(4-chloro-3,5-dimethylphenoxy)propyl)-N-(phenylsulfonyl)-5,6-dihydro-4H-pyrrolo[3,2,1-ij]quinoline-2-carboxamide] | 6.30 to 6.52 | –
Cc1cc(OCCCc2c(C(=O)NS(=O)(=O)c3ccccc3)n3c4c(cccc24)SCCC3)cc(C)c1Cl [Example 24, 7-(3-(4-chloro-3,5-dimethylphenoxy)propyl)-N-(phenylsulfonyl)-3,4-dihydro-2H-[1,4]thiazepino[2,3,4-hi]indole-6-carboxamide] | 6.52 to 7.00 | –
Cc1cc(OCCc2c(C(=O)O)n3c4c(cccc24)SCC3)cc(C)c1Cl [Example 3, 6-(2-(4-chloro-3,5-dimethylphenoxy)ethyl)-2,3-dihydro-[1,4]thiazino[2,3,4-hi]indole-5-carboxylic acid] | 5.00 to 6.00 | –
Cc1cc(OCCCc2c(C(=O)O)n3c4c(c(Cl)ccc24)OCC3)cc(C)c1Cl [Example 27, 9-chloro-6-(3-(4-chloro-3,5-dimethylphenoxy)propyl)-2,3-dihydro-[1,4]oxazino[2,3,4-hi]indole-5-carboxylic acid] | ≥ 7.00 | pKi ([1]; Table 3, read-out: Ki Mcl-1): 8.05; pKi [2]: < 4.70
O=C(O)c1c(CCCOc2cccc3ccccc23)c2cccc3c2n1CCC[S+]3[O-] (stereo not drawn) [Example 20, 7-(3-(naphthalen-1-yloxy)propyl)-3,4-dihydro-2H-[1,4]thiazepino[2,3,4-hi]indole-6-carboxylic acid 1-oxide] | ≥ 7.00 | pKi [2]: < 4.70
CS(=O)(=O)NC(=O)c1c(CCCOc2cccc3ccccc23)c2cccc3c2n1CCC3 [Example 15, N-(methylsulfonyl)-1-(3-(naphthalen-1-yloxy)propyl)-5,6-dihydro-4H-pyrrolo[3,2,1-ij]quinoline-2-carboxamide] | 5.00 to 6.00 | –
O=C(O)c1c(CCCOc2cccc3ccccc23)c2cccc3c2n1CCC3 [Example 14, 1-(3-(naphthalen-1-yloxy)propyl)-5,6-dihydro-4H-pyrrolo[3,2,1-ij]quinoline-2-carboxylic acid] | 6.30 to 6.52 | –
O=C(O)c1c(CCOc2cccc3ccccc23)c2cccc3c2n1CCC3 [Example 4, 1-(2-(naphthalen-1-yloxy)ethyl)-5,6-dihydro-4H-pyrrolo[3,2,1-ij]quinoline-2-carboxylic acid] | 5.00 to 6.00 | –
CS(=O)(=O)NC(=O)c1c(CCOc2cccc3ccccc23)c2cccc3c2n1CCS3 [Example 2, N-(methylsulfonyl)-6-(2-(naphthalen-1-yloxy)ethyl)-2,3-dihydro-[1,4]thiazino[2,3,4-hi]indole-5-carboxamide] | 5.00 to 6.00 | –
O=C(O)c1c(CCOc2cccc3ccccc23)c2cccc3c2n1CCS3 [Example 1, 6-(2-(naphthalen-1-yloxy)ethyl)-2,3-dihydro-[1,4]thiazino[2,3,4-hi]indole-5-carboxylic acid] | 5.00 to 6.00 | –
Cc1cc(OCCCc2c(C(=O)O)n3c4c(cccc24)CCC3)cc(C)c1Cl [Example 16, 1-(3-(4-chloro-3,5-dimethylphenoxy)propyl)-5,6-dihydro-4H-pyrrolo[3,2,1-ij]quinoline-2-carboxylic acid] | 6.52 to 7.00 | –
Cc1cc(OCCCc2c(C(=O)O)n3c4c(cccc24)OCC3)cc(C)c1Cl [Example 26, 6-(3-(4-chloro-3,5-dimethylphenoxy)propyl)-2,3-dihydro-[1,4]oxazino[2,3,4-hi]indole-5-carboxylic acid] | ≥ 7.00 | –
O=C(O)c1c(CCCOc2ccc(Cl)c3ccccc23)c2cccc3c2n1CCS3 [Example 10, 6-(3-((4-chloronaphthalen-1-yl)oxy)propyl)-2,3-dihydro-[1,4]thiazino[2,3,4-hi]indole-5-carboxylic acid] | 6.52 to 7.00 | pKi ([1]; Table 3, read-out: Ki Mcl-1): 6.70; pKi [2]: 5.33
O=C(O)c1c(CCOc2cccc3ccccc23)c2cccc3c2n1CCO3 [Example 5, 6-(2-(naphthalen-1-yloxy)ethyl)-2,3-dihydro-[1,4]oxazino[2,3,4-hi]indole-5-carboxylic acid] | 5.00 to 6.00 | –
O=C(NS(=O)(=O)c1ccccc1)c1c(CCOc2cccc3ccccc23)c2cccc3c2n1CCO3 [Example 6, 6-(2-(naphthalen-1-yloxy)ethyl)-N-(phenylsulfonyl)-2,3-dihydro-[1,4]oxazino[2,3,4-hi]indole-5-carboxamide] | 6.00 to 6.30 | –
CS(=O)(=O)NC(=O)c1c(CCCOc2cccc3ccccc23)c2cccc3c2n1CCCS3 [Example 19, N-(methylsulfonyl)-7-(3-(naphthalen-1-yloxy)propyl)-3,4-dihydro-2H-[1,4]thiazepino[2,3,4-hi]indole-6-carboxamide] | 6.00 to 6.30 | –
Cc1cc(OCCCc2c(C(=O)O)n3c4c(cccc24)SCC3)ccc1Cl [Example 12, 6-(3-(4-chloro-3-methylphenoxy)propyl)-2,3-dihydro-[1,4]thiazino[2,3,4-hi]indole-5-carboxylic acid] | 6.52 to 7.00 | –
O=C(O)c1c(CCCOc2cccc3ccccc23)c2cccc3c2n1CCS3 [Example 7, 6-(3-(naphthalen-1-yloxy)propyl)-2,3-dihydro-[1,4]thiazino[2,3,4-hi]indole-5-carboxylic acid] | 6.52 to 7.00 | pKi ([1]; Ki Mcl-1, Table 3): 6.97; pKi [2]: < 4.70
O=C(O)c1c(CCCOc2cccc3ccccc23)c2cccc3c2n1CCCS3(=O)=O [Example 21, 7-(3-(naphthalen-1-yloxy)propyl)-3,4-dihydro-2H-[1,4]thiazepino[2,3,4-hi]indole-6-carboxylic acid 1,1-dioxide] | ≥ 7.00 | –
O=C(O)c1c(CCCOc2ccc3c(c2)CCCC3)c2cccc3c2n1CCS3 [Example 11, 6-(3-((5,6,7,8-tetrahydronaphthalen-2-yl)oxy)propyl)-2,3-dihydro-[1,4]thiazino[2,3,4-hi]indole-5-carboxylic acid] | 6.30 to 6.52 | –
O=C(O)c1c(CCCOc2cccc3ccccc23)c2cccc3c2n1CCS3(=O)=O [Example 22, 6-(3-(naphthalen-1-yloxy)propyl)-2,3-dihydro-[1,4]thiazino[2,3,4-hi]indole-5-carboxylic acid 1,1-dioxide] | ≥ 7.00 | –
O=C(O)c1c(CCCOc2cccc3ccccc23)c2cccc3c2n1CCCS3 [Example 18, 7-(3-(naphthalen-1-yloxy)propyl)-3,4-dihydro-2H-[1,4]thiazepino[2,3,4-hi]indole-6-carboxylic acid] | 6.52 to 7.00 | –
CS(=O)(=O)NC(=O)c1c(CCCOc2cccc3ccccc23)c2cccc3c2n1CCS3 [Example 8, N-(methylsulfonyl)-6-(3-(naphthalen-1-yloxy)propyl)-2,3-dihydro-[1,4]thiazino[2,3,4-hi]indole-5-carboxamide] | 5.00 to 6.00 | –
O=C(O)c1c(CCCOc2cccc3c2CCCC3)c2cccc3c2n1CCS3 [Example 9, 6-(3-((5,6,7,8-tetrahydronaphthalen-1-yl)oxy)propyl)-2,3-dihydro-[1,4]thiazino[2,3,4-hi]indole-5-carboxylic acid] | 6.52 to 7.00 | –
Cc1cc(OCCCc2c(C(=O)O)n3c4c(cccc24)SCC3)cc(C)c1Cl [Example 13, 6-(3-(4-chloro-3,5-dimethylphenoxy)propyl)-2,3-dihydro-[1,4]thiazino[2,3,4-hi]indole-5-carboxylic acid] | ≥ 7.00 | pKi ([1]; Table 3, read-out: Ki Mcl-1): 7.15; pKi [2]: < 4.70
Cc1cc(OCCCc2c(C(=O)O)n3c4c(cccc24)SCCC3)cc(C)c1Cl [Example 23, 7-(3-(4-chloro-3,5-dimethylphenoxy)propyl)-3,4-dihydro-2H-[1,4]thiazepino[2,3,4-hi]indole-6-carboxylic acid] | ≥ 7.00 | pKi ([1]; Table 3, read-out: Ki Mcl-1): 7.40; pKi [2]: < 4.70

Source: patent US9949965B2, “Tricyclic indole Mcl-1 inhibitors and uses thereof” (priority 2014, dated 2018)
